In ChEMBL document CHEMBL1255356, “The efflux pump inhibitor reserpine selects multidrug-resistant Streptococcus pneumoniae strains that overexpress the ABC transporters PatA and PatB” (2008):
≈ marks a conversion by molar mass, not a printed value.

Tests used:
Streptococcus pneumoniae [1] = experiment: Antibacterial activity against Streptococcus pneumoniae R6 by microdilution method; format: functional
Streptococcus pneumoniae [2] = experiment: Antibacterial activity against Streptococcus pneumoniae M169 by microdilution method; format: functional
Streptococcus pneumoniae [3] = experiment: Antibacterial activity against Streptococcus pneumoniae M184 by microdilution method; format: functional
Streptococcus pneumoniae [4] = experiment: Antibacterial activity against Streptococcus pneumoniae M246 by microdilution method; format: functional
Streptococcus pneumoniae [5] = experiment: Antibacterial activity against Streptococcus pneumoniae M240 by microdilution method; format: functional
Streptococcus pneumoniae [6] = experiment: Antibacterial activity against Streptococcus pneumoniae M231 by microdilution method; format: functional
Streptococcus pneumoniae [7] = experiment: Antibacterial activity against Streptococcus pneumoniae M230 by microdilution method; format: functional
Streptococcus pneumoniae [8] = experiment: Antibacterial activity against Streptococcus pneumoniae M234 by microdilution method; format: functional
Streptococcus pneumoniae [9] = experiment: Antibacterial activity against Streptococcus pneumoniae M233 by microdilution method; format: functional
Streptococcus pneumoniae [10] = experiment: Antibacterial activity against Streptococcus pneumoniae M4 by microdilution method; format: functional
Streptococcus pneumoniae [11] = experiment: Antibacterial activity against Streptococcus pneumoniae M168 by microdilution method; format: functional
Streptococcus pneumoniae [12] = experiment: Antibacterial activity against Streptococcus pneumoniae M186 by microdilution method; format: functional
Streptococcus pneumoniae [13] = experiment: Antibacterial activity against Streptococcus pneumoniae M236 by microdilution method; format: functional
Streptococcus pneumoniae [14] = experiment: Antibacterial activity against Streptococcus pneumoniae M235 by microdilution method; format: functional
Streptococcus pneumoniae [15] = experiment: Inhibition of ABC efflux pump in Streptococcus pneumoniae M169 assessed as reduction in ciprofloxacin MIC at 80 ug/ml
Streptococcus pneumoniae [16] = experiment: Inhibition of ABC efflux pump in Streptococcus pneumoniae M184 assessed as reduction in ciprofloxacin MIC at 80 ug/ml
Streptococcus pneumoniae [17] = experiment: Inhibition of ABC efflux pump in Streptococcus pneumoniae M186 assessed as reduction in ciprofloxacin MIC at 80 ug/ml
Streptococcus pneumoniae [18] = experiment: Inhibition of ABC efflux pump in Streptococcus pneumoniae M169 assessed as increase in accumulation of ciprofloxacin by fluorometric uptake assay relative to wild type
Streptococcus pneumoniae [19] = experiment: Inhibition of ABC efflux pump in Streptococcus pneumoniae M184 assessed as increase in accumulation of ciprofloxacin by fluorometric uptake assay relative to wild type
Streptococcus pneumoniae [20] = experiment: Inhibition of ABC efflux pump in Streptococcus pneumoniae M4 assessed as increase in accumulation of ciprofloxacin by fluorometric uptake assay relative to wild type
Streptococcus pneumoniae [21] = experiment: Inhibition of ABC efflux pump in Streptococcus pneumoniae M168 assessed as increase in accumulation of ciprofloxacin by fluorometric uptake assay relative to sStreptococcus pneumoniae M4
Streptococcus pneumoniae [22] = experiment: Inhibition of ABC efflux pump in Streptococcus pneumoniae M186 assessed as increase in accumulation of ciprofloxacin by fluorometric uptake assay relative to wild type
Streptococcus pneumoniae [23] = experiment: Inhibition of ABC efflux pump in Streptococcus pneumoniae M169 assessed as increase in accumulation of ethidium bromide by fluorescence method after 10 mins relative to wild type; parameters: scale not given: the % may be the effect or the level left
Streptococcus pneumoniae [24] = experiment: Inhibition of ABC efflux pump in Streptococcus pneumoniae M184 assessed as increase in accumulation of ethidium bromide by fluorescence method after 10 mins relative to wild type; parameters: scale not given: the % may be the effect or the level left
Streptococcus pneumoniae [25] = experiment: Inhibition of ABC efflux pump in Streptococcus pneumoniae M168 assessed as increase in accumulation of ethidium bromide by fluorescence method after 10 mins relative to Streptococcus pneumoniae M4; parameters: scale not given: the % may be the effect or the level left
Streptococcus pneumoniae [26] = experiment: Inhibition of ABC efflux pump in Streptococcus pneumoniae M186 assessed as increase in accumulation of ethidium bromide by fluorescence method after 10 mins relative to wild type; parameters: scale not given: the % may be the effect or the level left

SMILES: COC(=O)[C@H]1[C@H]2C[C@@H]3c4[nH]c5cc(OC)ccc5c4CCN3C[C@H]2C[C@@H](OC(=O)c2cc(OC)c(OC)c(OC)c2)[C@@H]1OC [RESERPINE]
- MIC (Streptococcus pneumoniae [1]): 64 µg/mL (≈ 105 µM)
- MIC (Streptococcus pneumoniae [2]): 256 µg/mL (≈ 421 µM)
- MIC (Streptococcus pneumoniae [3]): 256 µg/mL (≈ 421 µM)
- MIC (Streptococcus pneumoniae [4]): 64 µg/mL (≈ 105 µM)
- MIC (Streptococcus pneumoniae [5]): 64 µg/mL (≈ 105 µM)
- MIC (Streptococcus pneumoniae [6]): 64 µg/mL (≈ 105 µM)
- MIC (Streptococcus pneumoniae [7]): 256 µg/mL (≈ 421 µM)
- MIC (Streptococcus pneumoniae [8]): 64 µg/mL (≈ 105 µM)
- MIC (Streptococcus pneumoniae [9]): 256 µg/mL (≈ 421 µM)
- MIC (Streptococcus pneumoniae [10]): 64 µg/mL (≈ 105 µM)
- MIC (Streptococcus pneumoniae [11]): 256 µg/mL (≈ 421 µM)
- MIC (Streptococcus pneumoniae [12]): 256 µg/mL (≈ 421 µM)
- MIC (Streptococcus pneumoniae [13]): 64 µg/mL (≈ 105 µM)
- MIC (Streptococcus pneumoniae [14]): 256 µg/mL (≈ 421 µM)
- Activity (Streptococcus pneumoniae [15]): 1 µg/mL
- Activity (Streptococcus pneumoniae [16]): 1 µg/mL
- Activity (Streptococcus pneumoniae [17]): 1 µg/mL
- fold change (FC) (Streptococcus pneumoniae [18]): 2.9
- fold change (FC) (Streptococcus pneumoniae [19]): 2.8
- fold change (FC) (Streptococcus pneumoniae [20]): 1.6
- fold change (FC) (Streptococcus pneumoniae [21]): 2.3
- fold change (FC) (Streptococcus pneumoniae [22]): 2.1
- Activity (Streptococcus pneumoniae [23]): 24.6%
- Activity (Streptococcus pneumoniae [24]): 26.7%
- Activity (Streptococcus pneumoniae [25]): 27.7%
- Activity (Streptococcus pneumoniae [26]): 32.9%
